From patent publication US20230270721A1, “INHIBITION OF BAX-MEDIATED CELL DEATH BY ELTROMBOPAG” (Albert Einstein College of Medicine, priority 2020, published 2023)
Where two headings read alike, the source gives them in different places.

Assays:
BAX [1] = biological target: T1, BAX (Homo sapiens, UniProt Q07812); test: Liposomal translocation assay with NBD-labeled BAX; assay type: biochemical; conditions: for IC50: NBD-labeled BAX 800 nM, 120 minutes
T1 construct: Human full-length (1-192) wild-type BAX (Q07812); made in house; host or cells: E. coli BL21 (DE3) CodonPlus (DE3)-RIPL
T1 sequence (Q07812 whole entry): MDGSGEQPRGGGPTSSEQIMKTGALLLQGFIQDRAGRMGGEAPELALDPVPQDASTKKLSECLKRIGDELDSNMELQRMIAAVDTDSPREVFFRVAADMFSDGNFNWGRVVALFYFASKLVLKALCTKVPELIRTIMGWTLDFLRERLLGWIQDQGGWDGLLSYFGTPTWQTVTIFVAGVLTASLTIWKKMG
Description: Lipids (Avanti Polar Lipids) at the following ratio, phosphatidylcholine 48%, phosphatidylinositol 10%, dioleoyl phosphatidylserine 10%, phosphatidylethanolamine, 28%, and tetraoleoyl cardiolipin 4%, were mixed in a total of 1 mg, dried and resuspended in 10 mM HEPES, pH 7, 200 mM KCl, and 5 mM MgCl2. The resulting slurry was vortexed for 10 minutes and sonicated in a sonicating water bath for 10 minutes. Liposomes were formed by extrusion of the suspension using Avanti Mini-Extruder with polycarbonate membranes of 0.1 µm pore size (Avanti Polar Lipids) followed by passage through a CL2B Sepharose column (GE Healthcare). Recombinant wild type BAX was labeled at cysteine by overnight incubation at 4° C. with 10 equivalents of iodoamino-NBD (IANBD, Thermo Fisher) and 3 equivalents of TCEP to maintain reduced cysteine. Labeled BAX (BAX-NBD) was separated from unreacted IANBD by gel filtration (Econo-Pac 10 DG desalting column, BioRad) and used immediately. […] Upon BAX-NBD translocation, the NBD fluorophore was excluded from bulk water through contact with the liposomal membrane leading to an increase in fluorescence intensity. Fluorescence (λex = 475 nm and λem = 530 nm) was measured at 1-minute intervals at 37° C. indicated using a Tecan Infinite M1000 plate reader. The percentage translocation at any given time point was calculated as percentage translocation=[((F-F0)/(F100-F0))(100)]-[((FS-FS0)/(FS100-FS0))(100)] where F0 and F100 are baseline and maximal fluorescence, respectively and FS, FS0, and FS100 are the current fluorescence, baseline fluorescence, maximal fluorescence of solution BAX incubated in the absence of liposomes. The subtraction of the percent translocation of solution BAX is required to correct for NBD fluorescence bleaching that occurs throughout the reaction. […]
(§1) Prior to permeabilizing membranes, activated BAX must first translocate to the membrane (Lovell, J. F. et al. Cell 135, 1074-1084, (2008)). To explore this earlier step in BAX activation, an NBD-fluorescence-based translocation assay was used. […]

BAX [2] = biological target: T1, BAX; test: BAX conformation change assay using anti-6A7 immunoprecipitation; assay type: biochemical; conditions: BAX 10 µM, 4 equivalents BIM-BH3, 5 or 10 equivalents EO
Description: Exposure of the 6A7 epitope of BAX was assessed by immunoprecipitation with a 6A7-domain-specific antibody purchased from Santa Cruz (SC-23959). Protein G beads (50 µL, Santa Cruz) were washed three times with 3% BSA in PBS and incubated with 15 µL 6A7 antibody at 4° C. for 1 hr. Recombinant full-length BAX (10 µM) was incubated with 4 equivalents of BIM-BH3 peptide alone and in the presence of 5 or 10 equivalents of EO for 15 min at room temperature. Incubation of full-length recombinant BAX with 0.1% Triton X served as a positive control for exposure of the 6A7 epitope. After incubation, 10 µL of each reaction was transferred to the protein G beads pre-loaded with the anti-6A7 antibody, and 1 µL was reserved as a loading control. After 90 minutes of incubation at 4° C. beads were collected and washed three times with […] of 3% BSA in PBS and solubilized with 25 µL LDS/DTT loading buffer. Samples were resolved by SDS-PAGE electrophoresis and western blot analysis with an anti-BAX yth-2D2 antibody (Invitrogen).
as §1

BAX KO (BAX-/-) MEFs = test: Cytochrome c release assay (ELISA), BAX KO MEFs; assay type: cell-based, mouse; conditions: BIM-BH3 peptide
Description: BAX^-/^- or BAK^-/^- mouse embryonic fibroblasts were maintained in DMEM (Life Technologies) supplemented with 10% FBS, 100 U/mL penicillin/streptomycin, 2 mM I-glutamine, and 0.1 mM MEM nonessential amino acids. MEFs (5×10^4 cells/well) were seeded in a 96 well clear u-bottom plate for 18-24 hr. Media was removed and replaced with media lacking FBS, and cells were treated with varying doses of EO for 2 hours at 37° C. […] Cytochrome c release was determined by decanting 50 µL of the supernatant and analyzing with the rat/mouse cytochrome c quantikine ELISA kit (R&D Systems, MCTO) according to the recommended protocol. […]
It is important to note that THPO-receptor agonist activity of EO is highly specific to the human and chimpanzee THPO-receptors, making mouse cell lines ideal for studying EO modulation of BAX-dependent activity independent of THPO-mediated effects (Erickson-Miller, C. L. et al. Stem Cells 27, 424-430 (2009)). First, mitochondrial cytochrome c release, a hallmark of BAX activation and BAX-dependent apoptosis, was evaluated. […] Next, mitochondrial translocation of cytosolic BAX upon treatment with either BIM BH3 or staurosporine (STS) in BAK KO MEFs was evaluated.

`CC1=NN(c2ccc(C)c(C)c2)C(=O)/C1=N\Nc1cccc(-c2cccc(C(=O)O)c2)c1O` [EO, eltrombopag] was tested, and the IC50 (BAX [1]; BIM BH3 1 µM, read-out: BIM IC50, inhibition of BAX translocation) was 5.7 µM, the IC50 (BAX [1]; tBID 200 nM, read-out: tBID IC50, inhibition of BAX translocation) was 6.3 µM and the “heat-induced auto-translocation of BAX” value (BAX [1]; heat-induced, no BH3 activator) was “capable of inhibiting heat-induced auto-translocation of BAX”. For the same molecule, the “BIM-BH3 induced 6A7 epitope exposure” value (BAX [2]) was “inhibited” and the “BIM-BH3 induced release of cytochrome c” value (BAX KO (BAX-/-) MEFs) was “no such effect”.
